{"source": "the NIST ThermoML archive (doi:10.1021/je400122k)", "details": "Liquid; for speed of sound: Pulse-echo method; for mass density: Vibrating tube method", "note": "Numbers after ± are expanded uncertainties."}
{"smiles": "CCCCCCCCCCCCCC(=O)OCC", "note": "[ethyl tetradecanoate]", "values": [{"measurement": "speed of sound", "setting": "293.15 K, 100 kPa", "result": "1360.6 ± 5.6", "unit": "m/s"}, {"measurement": "mass density", "setting": "293.15 K, 101.3 kPa", "result": "861 ± 1", "unit": "kg/m3"}, {"measurement": "speed of sound", "setting": "293.15 K, 10000 kPa", "result": "1408 ± 5.8", "unit": "m/s"}, {"measurement": "mass density", "setting": "293.15 K, 10000 kPa", "result": "867.5 ± 1", "unit": "kg/m3"}, {"measurement": "speed of sound", "setting": "293.15 K, 20000 kPa", "result": "1453.3 ± 6", "unit": "m/s"}, {"measurement": "mass density", "setting": "293.15 K, 20000 kPa", "result": "873.2 ± 1.1", "unit": "kg/m3"}, {"measurement": "speed of sound", "setting": "293.15 K, 30000 kPa", "result": "1494.5 ± 6.1", "unit": "m/s"}, {"measurement": "mass density", "setting": "293.15 K, 30000 kPa", "result": "878.7 ± 1.1", "unit": "kg/m3"}, {"measurement": "speed of sound", "setting": "293.15 K, 40000 kPa", "result": "1533.5 ± 6.3", "unit": "m/s"}, {"measurement": "mass density", "setting": "293.15 K, 40000 kPa", "result": "883.8 ± 1.1", "unit": "kg/m3"}, {"measurement": "speed of sound", "setting": "293.15 K, 50000 kPa", "result": "1568.2 ± 6.4", "unit": "m/s"}, {"measurement": "mass density", "setting": "293.15 K, 50000 kPa", "result": "888.7 ± 1.1", "unit": "kg/m3"}, {"measurement": "mass density", "setting": "293.15 K, 60000 kPa", "result": "893.6 ± 1.1", "unit": "kg/m3"}, {"measurement": "speed of sound", "setting": "303.15 K, 100 kPa", "result": "1321.8 ± 5.5", "unit": "m/s"}, {"measurement": "mass density", "setting": "303.15 K, 101.3 kPa", "result": "853.3 ± 1", "unit": "kg/m3"}, {"measurement": "speed of sound", "setting": "303.15 K, 10000 kPa", "result": "1370.9 ± 5.7", "unit": "m/s"}, {"measurement": "mass density", "setting": "303.15 K, 10000 kPa", "result": "860.2 ± 1", "unit": "kg/m3"}, {"measurement": "speed of sound", "setting": "303.15 K, 20000 kPa", "result": "1416.8 ± 5.8", "unit": "m/s"}, {"measurement": "mass density", "setting": "303.15 K, 20000 kPa", "result": "866.2 ± 1.1", "unit": "kg/m3"}, {"measurement": "speed of sound", "setting": "303.15 K, 30000 kPa", "result": "1460.6 ± 6", "unit": "m/s"}, {"measurement": "mass density", "setting": "303.15 K, 30000 kPa", "result": "871.9 ± 1.1", "unit": "kg/m3"}, {"measurement": "speed of sound", "setting": "303.15 K, 40000 kPa", "result": "1500.8 ± 6.2", "unit": "m/s"}, {"measurement": "mass density", "setting": "303.15 K, 40000 kPa", "result": "877.3 ± 1.1", "unit": "kg/m3"}, {"measurement": "speed of sound", "setting": "303.15 K, 50000 kPa", "result": "1539.9 ± 6.3", "unit": "m/s"}, {"measurement": "mass density", "setting": "303.15 K, 50000 kPa", "result": "882.2 ± 1.1", "unit": "kg/m3"}, {"measurement": "mass density", "setting": "303.15 K, 60000 kPa", "result": "887 ± 1.1", "unit": "kg/m3"}, {"measurement": "mass density", "setting": "303.15 K, 70000 kPa", "result": "891.7 ± 1.1", "unit": "kg/m3"}, {"measurement": "mass density", "setting": "303.15 K, 80000 kPa", "result": "896 ± 1.1", "unit": "kg/m3"}, {"measurement": "mass density", "setting": "303.15 K, 90000 kPa", "result": "900.3 ± 1.1", "unit": "kg/m3"}, {"measurement": "mass density", "setting": "303.15 K, 100000 kPa", "result": "904.4 ± 1.1", "unit": "kg/m3"}, {"measurement": "mass density", "setting": "313.15 K, 101.3 kPa", "result": "845.6 ± 1", "unit": "kg/m3"}, {"measurement": "mass density", "setting": "313.15 K, 10000 kPa", "result": "852.7 ± 1", "unit": "kg/m3"}, {"measurement": "mass density", "setting": "313.15 K, 20000 kPa", "result": "859 ± 1.1", "unit": "kg/m3"}, {"measurement": "mass density", "setting": "313.15 K, 30000 kPa", "result": "864.9 ± 1.1", "unit": "kg/m3"}, {"measurement": "mass density", "setting": "313.15 K, 40000 kPa", "result": "870.5 ± 1.1", "unit": "kg/m3"}, {"measurement": "mass density", "setting": "313.15 K, 50000 kPa", "result": "875.7 ± 1.1", "unit": "kg/m3"}, {"measurement": "mass density", "setting": "313.15 K, 60000 kPa", "result": "880.8 ± 1.1", "unit": "kg/m3"}, {"measurement": "mass density", "setting": "313.15 K, 70000 kPa", "result": "885.5 ± 1.1", "unit": "kg/m3"}, {"measurement": "mass density", "setting": "313.15 K, 80000 kPa", "result": "890.8 ± 1.1", "unit": "kg/m3"}, {"measurement": "mass density", "setting": "313.15 K, 90000 kPa", "result": "894.9 ± 1.1", "unit": "kg/m3"}, {"measurement": "mass density", "setting": "313.15 K, 100000 kPa", "result": "899.1 ± 1.2", "unit": "kg/m3"}, {"measurement": "speed of sound", "setting": "323.15 K, 100 kPa", "result": "1251.8 ± 5.2", "unit": "m/s"}, {"measurement": "mass density", "setting": "323.15 K, 101.3 kPa", "result": "838.5 ± 1", "unit": "kg/m3"}, {"measurement": "speed of sound", "setting": "323.15 K, 10000 kPa", "result": "1304.5 ± 5.4", "unit": "m/s"}, {"measurement": "mass density", "setting": "323.15 K, 10000 kPa", "result": "845.4 ± 1", "unit": "kg/m3"}, {"measurement": "speed of sound", "setting": "323.15 K, 20000 kPa", "result": "1353.4 ± 5.6", "unit": "m/s"}, {"measurement": "mass density", "setting": "323.15 K, 20000 kPa", "result": "852 ± 1.1", "unit": "kg/m3"}, {"measurement": "speed of sound", "setting": "323.15 K, 30000 kPa", "result": "1398.6 ± 5.8", "unit": "m/s"}, {"measurement": "mass density", "setting": "323.15 K, 30000 kPa", "result": "858.2 ± 1.1", "unit": "kg/m3"}, {"measurement": "speed of sound", "setting": "323.15 K, 40000 kPa", "result": "1441.1 ± 5.9", "unit": "m/s"}, {"measurement": "mass density", "setting": "323.15 K, 40000 kPa", "result": "863.9 ± 1.1", "unit": "kg/m3"}, {"measurement": "speed of sound", "setting": "323.15 K, 50000 kPa", "result": "1482.4 ± 6.1", "unit": "m/s"}, {"measurement": "mass density", "setting": "323.15 K, 50000 kPa", "result": "869.2 ± 1.1", "unit": "kg/m3"}, {"measurement": "speed of sound", "setting": "323.15 K, 60000 kPa", "result": "1519.7 ± 6.2", "unit": "m/s"}, {"measurement": "mass density", "setting": "323.15 K, 60000 kPa", "result": "874.7 ± 1.1", "unit": "kg/m3"}, {"measurement": "speed of sound", "setting": "323.15 K, 70000 kPa", "result": "1555.8 ± 6.4", "unit": "m/s"}, {"measurement": "mass density", "setting": "323.15 K, 70000 kPa", "result": "879.8 ± 1.1", "unit": "kg/m3"}, {"measurement": "speed of sound", "setting": "323.15 K, 80000 kPa", "result": "1590.8 ± 6.5", "unit": "m/s"}, {"measurement": "mass density", "setting": "323.15 K, 80000 kPa", "result": "884.5 ± 1.1", "unit": "kg/m3"}, {"measurement": "speed of sound", "setting": "323.15 K, 90000 kPa", "result": "1624.6 ± 6.6", "unit": "m/s"}, {"measurement": "mass density", "setting": "323.15 K, 90000 kPa", "result": "888.9 ± 1.2", "unit": "kg/m3"}, {"measurement": "speed of sound", "setting": "323.15 K, 100000 kPa", "result": "1655.7 ± 6.8", "unit": "m/s"}, {"measurement": "mass density", "setting": "323.15 K, 100000 kPa", "result": "893.1 ± 1.2", "unit": "kg/m3"}, {"measurement": "mass density", "setting": "333.15 K, 101.3 kPa", "result": "830.6 ± 1", "unit": "kg/m3"}, {"measurement": "mass density", "setting": "333.15 K, 10000 kPa", "result": "838 ± 1", "unit": "kg/m3"}, {"measurement": "mass density", "setting": "333.15 K, 20000 kPa", "result": "844.9 ± 1.1", "unit": "kg/m3"}, {"measurement": "mass density", "setting": "333.15 K, 30000 kPa", "result": "851.3 ± 1.1", "unit": "kg/m3"}, {"measurement": "mass density", "setting": "333.15 K, 40000 kPa", "result": "857.2 ± 1.1", "unit": "kg/m3"}, {"measurement": "mass density", "setting": "333.15 K, 50000 kPa", "result": "862.9 ± 1.1", "unit": "kg/m3"}, {"measurement": "mass density", "setting": "333.15 K, 60000 kPa", "result": "868.2 ± 1.1", "unit": "kg/m3"}, {"measurement": "mass density", "setting": "333.15 K, 70000 kPa", "result": "874 ± 1.1", "unit": "kg/m3"}, {"measurement": "mass density", "setting": "333.15 K, 80000 kPa", "result": "878 ± 1.2", "unit": "kg/m3"}, {"measurement": "mass density", "setting": "333.15 K, 90000 kPa", "result": "883.4 ± 1.2", "unit": "kg/m3"}, {"measurement": "mass density", "setting": "333.15 K, 100000 kPa", "result": "888 ± 1.2", "unit": "kg/m3"}, {"measurement": "speed of sound", "setting": "343.15 K, 100 kPa", "result": "1184.7 ± 4.9", "unit": "m/s"}, {"measurement": "mass density", "setting": "343.15 K, 101.3 kPa", "result": "823.2 ± 1", "unit": "kg/m3"}, {"measurement": "speed of sound", "setting": "343.15 K, 10000 kPa", "result": "1241.3 ± 5.1", "unit": "m/s"}, {"measurement": "mass density", "setting": "343.15 K, 10000 kPa", "result": "831.1 ± 1", "unit": "kg/m3"}, {"measurement": "speed of sound", "setting": "343.15 K, 20000 kPa", "result": "1293 ± 5.3", "unit": "m/s"}, {"measurement": "mass density", "setting": "343.15 K, 20000 kPa", "result": "838.6 ± 1.1", "unit": "kg/m3"}, {"measurement": "speed of sound", "setting": "343.15 K, 30000 kPa", "result": "1341.9 ± 5.5", "unit": "m/s"}, {"measurement": "mass density", "setting": "343.15 K, 30000 kPa", "result": "845.2 ± 1.1", "unit": "kg/m3"}, {"measurement": "speed of sound", "setting": "343.15 K, 40000 kPa", "result": "1386.7 ± 5.7", "unit": "m/s"}, {"measurement": "mass density", "setting": "343.15 K, 40000 kPa", "result": "851.3 ± 1.1", "unit": "kg/m3"}, {"measurement": "speed of sound", "setting": "343.15 K, 50000 kPa", "result": "1428.8 ± 5.9", "unit": "m/s"}, {"measurement": "mass density", "setting": "343.15 K, 50000 kPa", "result": "857.1 ± 1.1", "unit": "kg/m3"}, {"measurement": "speed of sound", "setting": "343.15 K, 60000 kPa", "result": "1468.1 ± 6", "unit": "m/s"}, {"measurement": "mass density", "setting": "343.15 K, 60000 kPa", "result": "862.5 ± 1.1", "unit": "kg/m3"}, {"measurement": "speed of sound", "setting": "343.15 K, 70000 kPa", "result": "1506.4 ± 6.2", "unit": "m/s"}, {"measurement": "mass density", "setting": "343.15 K, 70000 kPa", "result": "867.7 ± 1.1", "unit": "kg/m3"}, {"measurement": "speed of sound", "setting": "343.15 K, 80000 kPa", "result": "1541.9 ± 6.3", "unit": "m/s"}, {"measurement": "mass density", "setting": "343.15 K, 80000 kPa", "result": "872.8 ± 1.2", "unit": "kg/m3"}]}
